Measured values reported in patent US11648291B2, “Method of using PRD, PRD-S TAD, ZF7 peptide or mixture thereof to inhibit cellular response to inflammatory stimuli or treat cytokine-storm-mediated diseases” (GUANGZHOU MEDICAL UNIVERSITY, priority 2020, dated 2023).
Where “and” joins values, the source holds several entries; their conditions need not be identical. Equal values may be shown once.

Experiments:
[1] = test system: cellular response to TNFα, IL-1β, and LPS; assay: Cellular response to TNFα, IL-1β and LPS, data not shown (control peptide, biotin-tagged peptides); format: cell-based; conditions: for effect of biotin on the activity of the peptide: biotin attached to the N-terminus
Excerpt: (§1) In order to test the hypotheses that the PRD and TAD peptides inhibit the response to pro-inflammatory stimuli such as TNFα, IL-1β, and LPS, the peptides were synthesized and transfected into HCT-8 cells using a protein transfection reagent (Pierce). […] Next, we tested whether they can inhibit the expression of genes induced by TNFα, IL-1β, and LPS in human PBMCs. Both peptides indeed inhibited the expression of IL-6, IL-1β, IL-8, and arginase induced by TNFα, IL-1β, or LPS (FIG. 4B). Since both peptides are highly hydrophobic, we tested whether they can penetrate cells. Indeed, both peptides inhibited TNFα- or IL-1β-induced IL-8 expression with or without the transfection agent in HCT-8 cells, although it took more peptides to produce the similar level of inhibition (FIG. 4C, left panel). […] We tested a random peptide sequence ([…], SEQ ID NO:41) as a control and it had no effect on the cellular response to TNFα, IL-1β, and LPS (data not shown).
(§2) Recent findings identified the ZF7 (zinc finger domain 7) as the key domain for A20 to suppress inflammation (FIG. 6A). We hypothesized that ZF7 peptide inhibit the TNFα response just as PRD and TAD peptides do. […] Next, we tested whether ZF7 inhibits LPS response in vivo. We injected mice with a high dose of LPS (200 μg/mouse) or LPS+ZF7 (200 μg/mouse) and collected the sera after 3 hours. […] In order to tract ZF7 peptide inside cells, biotin was attached to the N-terminus to ZF7 peptide.

[2] = test system: TNFα-induced IL-8 expression in HCT-8 cells; assay: TNFα/IL-1β-induced IL-8 expression in HCT-8 cells (IL-8 ELISA); format: cell-based, human; conditions: for expression of IL-8 by the peptides themselves: no stimulus; for TNFα- or IL-1β-induced IL-8 expression: HCT-8, with or without the transfection agent, 1 μg/ml, TNFα 2 ng/ml or IL-1β 1 ng/ml, more peptide needed without transfection
Description: The indicated amount of the peptides was transfected into HCT-8 as described in the method. The transfected cells were stimulated with TNFα (4 hours after peptide transfection) for 24 hours. IL-8 expression was measured by ELISA. The results are the representative of 3 similar experiments.
(§3) HCT-8 cells were transfected with the peptides or just treated with them without transfection (1 μg/ml) and stimulated with TNFα (2 ng/ml) or IL-1-β (1 ng/ml) for 24 hours. PMBCs were treated with the indicated amount of each peptide (no transfection) and stimulated with TNFα (2 ng/ml) for 24 hours. IL-8 expression was measured by ELISA. The results are the representative of 2 similar experiments.
HCT-8 cells were stimulated with TNFα (2 ng/ml) with the indicated amount of PRD-S peptide for 24 hours. IL-8 expression was measured by ELISA.
Human PBMCs and THP-1 cells were cultured in RPMI-1640 while FLS and HCT-8 cells in DMEM, supplemented with 10% fetal bovine serum and maintained in a humidified incubator at 37° C. with 5% CO2 in air.
(§4) IL-8 LEISA kit was purchased from ThermoFisher and ELISA was performed according to the manufacturer's instruction.
Peptides were transfected into the cells using Pierce Protein Transfection Reagent Kit™ according to the manufacturer's instruction. The Pierce Reagent in methanol was pipetted into a tube and the solvent was evaporated in the hood. Peptides were diluted in PBS and mixed with the dried Pierce Reagent. The peptides/Reagent complex was added to the cells in serum-free medium. After 4 hours, the medium containing serum was added to the cells and the cells were used for experiments.
as §1
Based on the sequence analysis of the YAP1 mutants (FIG. 2A), we tested whether the shortest PRD peptide (M1) inhibits the TNFα response. We named this peptide as PRD-S(small).
as §2

[3] = test system: gene expression induced by TNFα, LPS, or IL-1β in human PBMCs; assay: Gene expression induced by TNFα, LPS or IL-1β in human PBMCs (ELISA, LegendPlex); format: cell-based; conditions: transfected PRD 1 μg or TAD 0.5 μg, TNFα 2 ng/ml, LPS 50 ng/ml or IL-1β 2 ng/ml, 24 hours
Description: PBMCs were transfected with either PRD (1 μg) or TAD (0.5 μg) as described in the method. The transfected cells were stimulated with TNFα (2 ng/ml), LPS (50 ng/ml), or IL-1β (2 ng/ml), 4 hours after peptide transfection, for 24 hours. IL-8 expression was measured by ELISA and IL-6, IL-1β, and arginase levels were measured by flow cytometry using LegendPlex as described in the method. The results are the representative of 3 similar experiments.
as §3, §4
All steps of PBMC preparation were carried out at room temperature. The blood from the same donor was pooled and mixed 1:1 with pre-warmed (room temperature) 1×PBS (without Ca^2+ or Mg^2+). […]
To simultaneously quantify the concentration of the soluble inflammatory cytokines and chemokines, the cell culture supernatant was analyzed by using the bead-based multiplex LEGENDplex™ (Biolegend) according to the manufacturer's instruction. […]

[4] = test system: TNFα response in HCT-8 cells (C, A20 KD, YAP KD); assay: TNFα response (IL-8 ELISA) in control, A20 KD and YAP KD HCT-8 cells; format: cell-based, human; conditions: TNFα 2 ng/ml overnight
Description: HCT-8 cells (C, A20 KD, YAP KD) were treated with PRD, TAD, or ZF7 peptide (1 μg/ml) and stimulated with TNFα (2 ng/ml) overnight. IL-8 levels in the medium were measured by ELISA. The results are the representative of 2 similar experiments. IL-8 LEISA kit was purchased from ThermoFisher and ELISA was performed according to the manufacturer's instruction. Next, we investigated how PRD, TAD, and ZF7 peptides inhibit the TNFα response. The PRD, TAD, and ZF7 peptides have the same effect as either YAP9 OE (over-expression) or A20 OE, respectively. Since YAP9 OE or A20 OE is futile in the absence of the other (FIGS. 5B and 5C), PRD or TAD peptide should also require the presence of A20 while ZF7 peptide the presence of YAP9. Indeed, our data supported this notion. When both YAP9 and A20 are present (C), all 3 peptides inhibited the TNFα response.

[5] = test system: LPS response in mice; assay: LPS response in mice: serum cytokines and chemokines by LegendPlex (Table 1); format: in vivo, C57BL/6 mice
Description: as §2
Table.1 ZF7 peptide inhibits the LPS response in mice. C57BL/6 mice (n=2) were injected intraperitoneally with LPS (200 μg/mouse) or LPS (200 μg/mouse)+ZF7 peptide (200 μg/mouse) and the sera were collected after 3 hours. The cytokines and chemokines in the sera were measured by LegendPlex according to the manufacturer's instruction. The number represents pg/ml.

[6] = test system: LPS-induced mortality; assay: LPS-induced mortality in mice; format: in vivo, mice (C57B/6); conditions: mice n=5, LPS 200 μg + ZF7 300 μg i.p., observed 7 days; LPS control group 60% mortality
Description: Mice (8-week old, C57B/6, n=5) were injected with LPS (200 μg) or LPS (200 μg)+ZF7 (300 μg) in 200 μl PBS intraperitoneally.
Since ZF7 inhibited LPS-induced cytokine production in mice (Table 1), we next tested whether ZF7 peptide can protect mice from LPS-induced mortality.

[7] = HCT-8, peptides transfected, TNFα 24 hours, ELISA
[8] = control HCT-8 (both YAP9 and A20 present), peptide 1 μg/ml
[9] = serum 3 hours after i.p. LPS 200 μg/mouse + ZF7 200 μg/mouse, one line per mouse (n=2)

Sequence: ARNDCEQGHILKMFPSTWYV [random peptide sequence, reference compound]
- effect on the cellular response to TNFα, IL-1β, and LPS ([1]; control peptide): no effect

Sequence: GQPPSQPPQGQGPPSGPGQPAPAATQAAPQ (listed as Homo sapiens) [PRD]
- TNFα-induced IL-8 expression [2, 7]: suppressed
- expression of IL-8 by the peptides themselves ([2]; HCT-8, peptides transfected): did not affect
- TNFα- or IL-1β-induced IL-8 expression ([2]; 24 hours): inhibited
- expression of IL-6, IL-1β, IL-8, and arginase induced by TNFα, IL-1β, or LPS [3]: inhibited
- TNFα response (IL-8) ([4]; A20 KD HCT-8, peptide 1 μg/ml): significantly less effective
- TNFα response (IL-8) ([4]; YAP KD HCT-8, peptide 1 μg/ml): retained their full inhibitory capacity
- TNFα response (IL-8) [4, 8]: inhibited
- effect of biotin on the activity of the peptide [1]: did not affect the activity

Sequence: PPKQRCRAPACDHFGNAKCNGYCNECYQFKQMYG (listed as Homo sapiens) [ZF7]
- TNFα response (IL-8 ELISA) ([2]; HCT-8, without transfection, TNFα 2 ng/ml overnight): significantly inhibited
- TNFα response (IL-8) ([4]; A20 KD HCT-8, peptide 1 μg/ml): retained its full inhibitory capacity
- TNFα response (IL-8) ([4]; YAP KD HCT-8, peptide 1 μg/ml): ineffective
- TNFα response (IL-8) [4, 8]: inhibited
- effect of biotin on the activity of the peptide [1]: did not affect the activity
- all the cytokines and chemokines measured in sera ([5]; mice, LPS 200 μg/mouse + ZF7 200 μg/mouse, sera after 3 hours): almost completely inhibited
- CCL2 [5, 9]: 238.13 pg/mL and 222.5 pg/mL
- GMCSF [5, 9]: <18.38 pg/mL
- IFNβ [5, 9]: <4.36 pg/mL
- IFNγ [5, 9]: <0.53 pg/mL and 87.58 pg/mL
- IL1-β [5, 9]: <4.33 pg/mL and 14.99 pg/mL
- IL-1α [5, 9]: <26.12 pg/mL and 57.24 pg/mL
- IL-6 [5, 9]: 4142.37 pg/mL and 1570.50 pg/mL
- IL-10 [5, 9]: <9.48 pg/mL and 65.31 pg/mL
- IL-17A [5, 9]: <4.47 pg/mL and 129.84 pg/mL
- IL-27 [5, 9]: <8.56 pg/mL and 137.96 pg/mL
- TNFα [5, 9]: <4.10 pg/mL and 44.45 pg/mL
- LPS-induced mortality [6]: no mortality

Sequence: QPPGQGPPSGPGQPA (listed as Homo sapiens) [PRD-S]
- TNFα-induced IL-8 expression ([2]; HCT-8, PRD-S without transfection, TNFα 2 ng/ml, 24 hours): inhibited TNFα-induced IL-8 expression in a dose-response manner

Sequence: RQAMRININPSTANSPKCQE (listed as Homo sapiens) [TAD]
- relative potency in suppressing TNFα-induced IL-8 expression ([2]; HCT-8, peptides transfected): more potent than PRD peptide
- TNFα-induced IL-8 expression [2, 7]: suppressed
- expression of IL-8 by the peptides themselves ([2]; HCT-8, peptides transfected): did not affect
- TNFα- or IL-1β-induced IL-8 expression ([2]; 24 hours): inhibited
- expression of IL-6, IL-1β, IL-8, and arginase induced by TNFα, IL-1β, or LPS [3]: inhibited
- TNFα response (IL-8) ([4]; A20 KD HCT-8, peptide 1 μg/ml): significantly less effective
- TNFα response (IL-8) ([4]; YAP KD HCT-8, peptide 1 μg/ml): retained their full inhibitory capacity
- TNFα response (IL-8) [4, 8]: inhibited
- effect of biotin on the activity of the peptide [1]: did not affect the activity
